Laboratory results as given in ChEMBL document CHEMBL4834486 (Bioorg Med Chem, 2021).
pIC50: −log10 of the molar value.

Legend:
MDA-MB-231 = test: Antiproliferative activity against human MDA-MB-231 cells assessed as inhibition of cell proliferation measured after 72 hrs by CCK-8 assay; type: functional, cell-based; conditions: MDA-MB-231, 72 h
MCF7 = test: Antiproliferative activity against human MCF7 cells assessed as inhibition of cell proliferation measured after 72 hrs by CCK-8 assay; type: functional, cell-based; conditions: MCF7, 72 h
MCF-10A = test: Cytotoxicity against human MCF-10A cells assessed as inhibition of cell proliferation measured after 72 hrs by CCK-8 assay; type: cell-based

SMILES | pIC50 (MDA-MB-231) | pIC50 (MCF7) | pIC50 (MCF-10A)
COc1ccc(-c2nc(CO)cc3c2[nH]c2ccccc23)cc1 | < 4.70 | 4.80 | < 4.40
COC(=O)[C@H](Cc1ccc(N(CCCl)CCCl)cc1)NC(=O)CCCC(=O)OCc1cc2c([nH]c3ccccc32)c(C)n1 | < 4.70 | < 4.70 | < 4.40
COC(=O)[C@H](Cc1ccc(N(CCCl)CCCl)cc1)NC(=O)CCC(=O)OCc1cc2c(cn1)[nH]c1ccccc12 | < 4.70 | < 4.70 | < 4.40
COC(=O)[C@H](Cc1ccc(N(CCCl)CCCl)cc1)NC(=O)CCCC(=O)OCc1cc2c(cn1)[nH]c1ccccc12 | < 4.70 | < 4.70 | < 4.40
COc1ccc(-c2nc(COC(=O)c3ccc(N(CCCl)CCCl)cc3)cc3c2[nH]c2ccccc23)cc1 | 4.84 | 5.63 | 4.45
Cc1nc(COC(=O)c2ccc(N(CCCl)CCCl)cc2)cc2c1[nH]c1ccccc12 | 5.13 | 5.42 | 4.58
OCc1cc2c(cn1)[nH]c1ccccc12 | < 4.70 | < 4.70 | < 4.40
COc1cccc2c1C(=O)c1c(O)c3c(c(O)c1C2=O)C[C@@](O)(C(=O)CO)C[C@@H]3O[C@H]1C[C@H](N)[C@H](O)[C@H](C)O1 [DOXORUBICIN] | 5.56 | – | –
N[C@@H](Cc1ccc(N(CCCl)CCCl)cc1)C(=O)O [MELPHALAN] | < 4.70 | 5.07 | < 4.40
Cc1nc(CO)cc2c1[nH]c1ccccc12 | < 4.70 | 4.95 | < 4.40
